In patent US12642791B2, “Inhibitors of lysyl oxidases” (UNIVERSITY OF SOUTH CAROLINA, priority 2021, dated 2026):

Key:
[1] = system: HCC1143; assay: Doxorubicin chemosensitization in 3D collagen I culture; type: cell-based, human; conditions: collagen I-embedded cells, combination with doxorubicin
Procedure: (§1) Collagen solution was prepared at a concentration of 0.5-1 mg/ml from the rat tail collagen I (Corning, USA) with a neutralization step including the addition of 1N NaOH solution. Cells were trypsinazed and resuspended in collagen:matrigel mix (1:1). 8×10^3 cells were seeded into 96-well or μ-Slide 8-well glass bottom chambers. After 1 hour of incubation at room temperature, media was added on top of the solidified collagen:matrigel mix. Drug treatments were done 12 hours after cell seeding.
(§2) Cells were embedded in type I collagen:matrigel mix as described above. Cells were grown in the presence of doxorubicin or LOX inhibitors alone or combination of LOX inhibitors with doxorubicin for 48 hours. After the treatment, cell viability was measured by using 3D Cell Titer Glo (Promega, USA) kit.

[2] = system: MDA-MB-231 cells; assay: as above; type: cell-based, human; conditions: collagen I-embedded cells, combination with doxorubicin
Procedure: as §1, §2

[3] = system: HFF; assay: Viability assay in normal cells; type: cell-based; conditions: human foreskin fibroblast cell line
Text: (§3) FIG. 32. 6232 derivatives, 6403 and 6415, show no cytotoxicity in normal cells. Viability assay in normal breast cell line, MCF12A, human foreskin fibroblast cell line, HFF and human endothelial cell line, HUVEC treated with 6403 or 6415.

[4] = system: HUVEC; assay: Viability assay in normal cells; type: cell-based; conditions: human endothelial cell line
Text: as §3

[5] = system: TM01278 PDX organoids; assay: PDX-derived TNBC organoids, combination with doxorubicin; type: cell-based, human; conditions: combination with doxorubicin (50 nM) vs single agents, 9 days
Procedure: FIG. 36. Combination of 6403 and 6415 with doxorubicin reduced the growth of the TNBC organoids. A. Representative images of TM01278 PDX organoids at day 0 and day 9 after treatment with doxorubicin (50 nM) and 6403 and 6415 treatments, alone or in combination. B. Quantification of organoid diameter and viability upon combination therapy for 9 days.
TNBC organoids were established from a fresh surgical tissue by cutting the tumor into small pieces and incubating in collagenase A solution with ROCK inhibitor on a shaker at 37° C. for 30 minutes. The collagenase activity was inhibited by adding FBS, and pipetting was done to ensure the formation of almost a single cell solution. After several washes with PBS, the cell pellet was dissolved in matrigel. Breast organoid media containing ROCK and GSK inhibitors was added after the Matrigel solidified. See, Sachs, N. et al. A Living Biobank of Breast Cancer Organoids Captures Disease Heterogeneity. Cell 172, 373-386 e310, doi:10.1016/j.cell.2017.11.010 (2018). For drug testing studies, organoids were disrupted to single cells by digesting at 37° C. for 30 mins with TrypLE (A1217701, Gibco, NY, USA) in the presence of 10 μM Rock inhibitor (s1049, Selleckchem, TX, USA). Organoids were plated into wells of 96 well plate (20.000 cells/well) on a collagen-coated surface with media containing 2% Matrigel (356252, Corning, NY, USA). Drugs were added 72 hours after plating. Cells were grown in the presence of drug or vehicle for 9 days, and photos were taken from each well to show the organoid size. Organoid viability was measured by using 3D Cell Titer Glo (Promega, USA) kit.

[6] = system: ACHN ccRCC xenografts; assay: Kidney cancer xenograft model; type: in vivo, BALB/c nude mice; conditions: 50 mg/kg, PO, daily
Procedure: FIG. 42. Efficacy of 6403 as a single agent in ccRC xenografts. Tumor volume (A), % body weight change (B) and blood count (C) of 6403-treated (50 mg/kg, PO, daily) ACHN xenografts. μg=microgram. LOX expression in ACHN cells is provided by an inset next to the graph in A.
For kidney xenografts, 4×10^6 ACHN cells were mixed with 1:1 DMEM and matrigel and injected into the flank of the BALB/c nude mice. Mouse weight and tumor volumes were measured every second day using calipers. When tumor sizes reach 100 mm^3, mice were randomly distributed into vehicle and 6403 treatment group. Mice were treated daily by oral gavage with vehicle v (50% PEG400, 1% Tween 80 in acetate buffer pH=4) or 50 mg/kg of 6403.

[7] = target: T1, LOXL2 (Homo sapiens, UniProt Q9Y4K0); assay: Lysyl oxidase activity assay with recombinant LOXL2 protein; type: biochemical; parameters: purchased Abcam, USA; conditions: for inhibition of recombinant LOXL2: 10 μM compound
T1 sequence (Q9Y4K0 26-774): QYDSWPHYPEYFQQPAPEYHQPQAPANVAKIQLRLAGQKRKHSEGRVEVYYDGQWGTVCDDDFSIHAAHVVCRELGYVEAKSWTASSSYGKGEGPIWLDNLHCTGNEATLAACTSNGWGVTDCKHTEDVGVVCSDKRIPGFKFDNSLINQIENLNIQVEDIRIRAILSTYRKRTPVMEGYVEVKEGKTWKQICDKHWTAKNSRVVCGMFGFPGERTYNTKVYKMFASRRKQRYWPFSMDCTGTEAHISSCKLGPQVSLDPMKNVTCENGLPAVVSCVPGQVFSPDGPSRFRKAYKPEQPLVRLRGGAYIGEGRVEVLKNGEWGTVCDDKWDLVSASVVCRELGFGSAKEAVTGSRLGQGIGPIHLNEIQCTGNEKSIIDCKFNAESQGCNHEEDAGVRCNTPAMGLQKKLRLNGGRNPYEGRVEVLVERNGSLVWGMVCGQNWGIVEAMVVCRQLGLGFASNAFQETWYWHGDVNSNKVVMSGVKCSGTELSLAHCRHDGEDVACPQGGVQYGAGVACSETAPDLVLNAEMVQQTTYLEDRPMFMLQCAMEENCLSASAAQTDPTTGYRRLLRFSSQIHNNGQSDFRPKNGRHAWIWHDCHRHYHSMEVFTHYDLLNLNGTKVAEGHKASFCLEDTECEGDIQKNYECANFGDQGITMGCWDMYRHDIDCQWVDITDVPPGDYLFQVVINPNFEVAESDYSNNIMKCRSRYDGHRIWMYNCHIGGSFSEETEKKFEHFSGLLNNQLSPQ
Procedure: For in vitro lysyl oxidase activity (for recombinant proteins), Lysyl Oxidase Activity kit (Biovision, USA) was used according to manufacturer's instructions. Briefly, 1 μg of LOX (Novus, USA), 0.2 μg of LOXL1 (Abcam, USA) and 0.1 μg of LOXL2 (Abcam, USA) were incubated with the reagent mix in the presence of inhibitors or vehicle. Lysyl oxidase activity of the wells was measured in multimode reader (every 30 sec, total 2.5 hours) in […] mode.

counts of major blood cells [6] | Structure (SMILES) | doxorubicin sensitization [1] | doxorubicin sensitization [2] | cell viability (cytotoxicity in normal cells) [3] | cell viability (cytotoxicity in normal cells) [4] | organoid size [5] | organoid viability [5] | body weight [6] | tumor growth ([6]; single agent) | inhibition of recombinant LOXL2 [7] | inhibition of recombinant LOXL2 activity ([7]; 5 and 10 uM)
without impacting | CC(=O)Nc1ccc(Nc2nc(-c3sc(N)nc3C)cs2)cc1 [compound 6403, N-[4-[[4-(2-amino-4-methyl-thiazol-5-yl)thiazol-2-yl]amino]phenyl]acetamide] | led to doxorubicin sensitization | led to doxorubicin sensitization | no significant change in cell viability | no significant change in cell viability | significantly decreased organoid size | significantly decreased | without impacting | successfully reduced the tumor growth |  | 
 | Cc1nc(N)sc1-c1csc(Nc2ccc([N+](=O)[O-])cc2)n1 [compound 6232, 4-methyl-5-[2-(4-nitroanilino)thiazol-4-yl]thiazol-2-amine] |  |  |  |  |  |  |  |  | moderately inhibit | 
 | Cc1nc(N)sc1-c1csc(N(C)c2ccc(O)cc2)n1 [compound 6415, 4-[[4-(2-amino-4-methyl-thiazol-5-yl)thiazol-2-yl]-methyl-amino]phenol] | led to doxorubicin sensitization | led to doxorubicin sensitization | no significant change in cell viability | no significant change in cell viability | significantly decreased organoid size | significantly decreased |  |  | inhibits both LOX and LOXL2 recombinant proteins | inhibited the activity of LOX and LOXL2 recombinant proteins
